Experimental data published in patent US20250376691A1, “FLOTATION OF CULTURED EMBRYO EXPLANTS FOR IMPROVED PLANT REGENERATION EFFICIENCY” (Monsanto Technology LLC, priority 2022, published 2025).

Tested on: corn seed excised explants
Assay: Agrobacterium-mediated transformation and shoot/plant regeneration of corn seed excised explants (shoot frequency, normal shoot frequency, normal plant frequency)
Assay type: cell-based
Protocol: The shoot frequency was calculated as the number of inoculated explants producing shoots divided by the total number of inoculated explants.
The shoot frequency was calculated as the number of inoculated explants producing shoots divided by the total number of inoculated explants. […] The normal shoot frequency was calculated as the number of normal shoots divided by the total number of inoculated explants.

O=C(O)COc1ccc(Cl)cc1Cl [2,4-D, 2,4-dichlorophenoxyacetic acid]
average normal plant frequency when 2,4-D was present in co-culture medium (4 and 5 day co-culture combined): 0.73%
average normal plant frequency (%), 2,4-D Present in Co-Culture (co-culture 4 days): 0.85%
average normal plant frequency (%), 2,4-D Present in Co-Culture (co-culture 5 days): 0.5%
Fold Increase in normal plant frequency without 2,4-D versus with 2,4-D, overall/average (co-culture medium, 17 experiments): 1.8
